Reference: PMC5014630 (Molecular pharmaceutics, 2016)

Assays:
iPSC-derived BMECs [1] = assay: Temperature dependence of permeability; type: in vitro ADME, human; settings: normalized to 37°C condition; Student's t-test
iPSC-derived BMECs [2] = assay: Directional; type: in vitro ADME, human; settings: normalized to AB permeability; Student's t-test
BCRP = biological target: T1, BCRP (Homo sapiens, UniProt Q9UNQ0); assay: Permeability with BCRP inhibitor Ko143 in iPSC-derived BMEC; type: in vitro ADME; settings: 1 μM Ko143, 60 min pre-incubation; normalized to no inhibitor
T1 sequence (Q9UNQ0 1-655): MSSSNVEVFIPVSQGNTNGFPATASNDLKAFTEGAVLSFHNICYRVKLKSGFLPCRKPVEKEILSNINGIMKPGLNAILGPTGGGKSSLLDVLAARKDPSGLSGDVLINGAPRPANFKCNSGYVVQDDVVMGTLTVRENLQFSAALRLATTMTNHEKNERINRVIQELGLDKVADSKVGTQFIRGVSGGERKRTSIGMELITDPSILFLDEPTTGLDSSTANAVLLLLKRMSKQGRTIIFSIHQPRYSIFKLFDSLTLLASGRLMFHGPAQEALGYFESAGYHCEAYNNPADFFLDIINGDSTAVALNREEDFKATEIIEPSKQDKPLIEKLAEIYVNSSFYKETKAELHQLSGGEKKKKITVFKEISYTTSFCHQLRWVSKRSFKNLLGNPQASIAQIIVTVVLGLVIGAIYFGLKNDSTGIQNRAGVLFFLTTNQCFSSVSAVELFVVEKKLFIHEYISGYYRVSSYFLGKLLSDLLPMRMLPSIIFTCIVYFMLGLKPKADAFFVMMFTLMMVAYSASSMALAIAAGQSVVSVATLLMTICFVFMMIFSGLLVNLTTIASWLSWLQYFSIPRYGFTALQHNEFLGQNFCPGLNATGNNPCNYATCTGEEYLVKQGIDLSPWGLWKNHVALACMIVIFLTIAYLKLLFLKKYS

MRPs = assay: Permeability with pan-MRP inhibitor MK571 in iPSC-derived BMEC; type: in vitro ADME, human; settings: 10 μM MK571, 60 min pre-incubation; normalized to no inhibitor
P-gp = P-gp (Homo sapiens, UniProt P08183); assay: Permeability with P-gp inhibitor PSC833 in iPSC-derived BMEC; type: in vitro ADME; settings: 1 μM PSC833, 60 min pre-incubation; normalized to no inhibitor
[3] = Permeability across iPSC-derived BMEC Transwell in vitro BBB model; settings: human
[4] = Experimental octanol/water LogD; type: physicochemical; settings: pH 7.4, octanol:buffer
iPSC-derived BMECs [5] = assay: Permeability across iPSC-derived BMEC Transwell in vitro BBB model; settings: for permeability (Pe) across iPSC-BMEC: Transwell, APC analogs 1 μM in PM20, 2 hours, mean±S.E., n≥3

P-gp, sequence (P08183 whole entry): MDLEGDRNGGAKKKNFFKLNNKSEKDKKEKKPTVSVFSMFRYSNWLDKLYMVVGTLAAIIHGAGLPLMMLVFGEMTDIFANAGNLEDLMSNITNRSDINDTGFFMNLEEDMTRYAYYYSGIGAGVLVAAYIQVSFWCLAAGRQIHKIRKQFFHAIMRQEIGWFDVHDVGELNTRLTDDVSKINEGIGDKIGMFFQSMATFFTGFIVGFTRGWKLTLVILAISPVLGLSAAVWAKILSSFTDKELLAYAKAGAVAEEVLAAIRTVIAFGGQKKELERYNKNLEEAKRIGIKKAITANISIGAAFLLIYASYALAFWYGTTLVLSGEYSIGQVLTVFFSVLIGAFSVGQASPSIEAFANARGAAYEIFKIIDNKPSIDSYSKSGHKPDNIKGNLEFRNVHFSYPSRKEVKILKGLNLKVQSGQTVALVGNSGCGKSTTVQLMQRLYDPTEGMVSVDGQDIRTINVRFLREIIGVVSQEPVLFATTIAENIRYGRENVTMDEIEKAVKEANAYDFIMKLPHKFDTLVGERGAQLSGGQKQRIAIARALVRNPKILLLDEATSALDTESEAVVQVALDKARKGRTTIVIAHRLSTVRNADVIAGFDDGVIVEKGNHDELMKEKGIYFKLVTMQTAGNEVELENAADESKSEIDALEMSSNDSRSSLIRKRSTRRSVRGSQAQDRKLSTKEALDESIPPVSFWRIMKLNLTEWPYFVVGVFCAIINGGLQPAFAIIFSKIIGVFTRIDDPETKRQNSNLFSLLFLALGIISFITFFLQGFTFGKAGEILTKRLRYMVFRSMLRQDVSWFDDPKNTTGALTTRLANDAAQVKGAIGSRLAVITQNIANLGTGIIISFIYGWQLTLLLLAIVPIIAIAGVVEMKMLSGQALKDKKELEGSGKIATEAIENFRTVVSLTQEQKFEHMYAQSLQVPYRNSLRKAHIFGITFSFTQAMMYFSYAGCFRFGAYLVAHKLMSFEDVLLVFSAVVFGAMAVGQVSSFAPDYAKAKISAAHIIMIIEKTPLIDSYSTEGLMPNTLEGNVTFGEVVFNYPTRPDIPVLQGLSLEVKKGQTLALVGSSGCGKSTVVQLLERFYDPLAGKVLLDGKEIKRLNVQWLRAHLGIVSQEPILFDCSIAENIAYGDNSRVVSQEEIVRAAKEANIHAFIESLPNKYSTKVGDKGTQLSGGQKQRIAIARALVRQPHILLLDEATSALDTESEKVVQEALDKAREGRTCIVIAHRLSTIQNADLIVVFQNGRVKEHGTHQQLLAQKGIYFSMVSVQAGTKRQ

SMILES	in vitro BBB permeability at 4°C compared to 37°C (iPSC-derived BMECs [1])	polarized flux, basolateral-apical (BA) vs apical-basolateral (AB) (iPSC-derived BMECs [2])	permeability change with Ko143 (BCRP inhibition) (BCRP)	permeability change with MK571 (MRP inhibition) (MRPs)	permeability change with PSC833 (P-gp inhibition) (P-gp)	Papp at 2 h, 1 μM [3] [×10⁻⁶ cm/s]	fold increase of experimental LogD compared to parent CLR1404 [4]	permeability (Pe) across iPSC-BMEC (iPSC-derived BMECs [5])	fold reduced permeability compared with CLR1501 (iPSC-derived BMECs [5]; iPSC-derived BMEC Transwell, p<0.05) [fold]
C[N+](C)(C)CCOP(=O)([O-])OCCCCCCCCCCCCCCCCCCc1ccc(I)cc1 [CLR1404, 18-(p-iodophenyl) octadecylphosphocholine]	slight, but statistically insignificant, increase	no significant evidence of polarized efflux	did not affect	did not affect	did not affect	5.83	–	–	–
C[N+](C)(C)CCOP(=O)([O-])OCCCCCCCCCCCCCCCCCCc1ccc(C2=C3C=CC=[N+]3[B-](F)(F)n3cccc32)cc1 [CLR1501]	significantly higher	significantly polarized flux in the brain-to-blood (BA) direction	selectively increased	selectively increased	–	–	greater than 2 fold	54±3.2 ×10^−5 cm/min	–
CN1/C(=C/C=C2\CCCC(/C=C/C3=[N+](C)c4ccccc4C3(C)C)=C2c2ccc(CCCCCCCCCCCCCCCCCCOP(=O)([O-])OCC[N+](C)(C)C)cc2)C(C)(C)c2ccccc21.[Cl-] [CLR1502]	significantly higher	significantly polarized flux in the brain-to-blood (BA) direction	A similar pattern was observed	A similar pattern was observed	–	–	greater than 2 fold	26±4.9 ×10^−5 cm/min	2
